Key:
[1] = test system: MCF7 Palbo-R (palbociclib-resistant cells constructed on MCF7); experiment: Inhibitory activity against tumor cells, CellTiter-Glo: MCF7 Palbo-R; format: cell-based; settings: Homo sapiens, 168 h, 7 days treatment
Description: (§1) MCF7 (ATCC #HTB-22) and T47D (ATCC #HTB-133) breast cancer cells and PANC-1 (ATCC #CRL-1469) pancreatic cancer cells were purchased from ATCC. MDA-MB-231 (Cobioer #CBP60382), HCC1806 (Cobioer #CBP60373), and MDA-MB-468 (Cobioer #CBP60387) breast cancer cells, HCT-116 (Cobioer #CBP60028) colorectal cancer cells, and OCI-AML-3 (Cobioer #CBP60817) and MV-4-11 (Cobioer #CBP60522) leukemia cells were purchased from Nanjing Cobioer Biosciences Co., Ltd.
(§2) OCI-AML-3 was cultured in RPMI 1640 medium with 20% FBS; HCC1806 and T47D were cultured in RPMI 1640 medium with 10% FBS; MCF7, MDA-MB-231, MDA-MB-468, and PANC-1 were cultured in DMEM medium with 10% FBS; MV-4-11 was cultured in IMDM medium with 20% FBS; HCT-116 was cultured in MC′5A medium with 10% FBS.
(§3) Palbociclib-resistant cells were constructed on MCF7 parent cells, designated MCF7 Palbo-R, and the culture conditions were consistent with those of the parent cells. All tumor cells were cultured in a cell incubator at 37° C. with 5% CO2. The cells were seeded at corresponding cell densities (600 cells/well for MDA-MB-231; 500 cells/well for MDA-MB-468, PANC-1, and HCT-116; 200 cells/well for MCF7 and HCC1806; 800 cells/well for MCF7 Palbo-R; 3000 cells/well for OCI-AML-3 and MV-4-11) in 384-well plates and cultured overnight in the incubator. On the second day, the cells were treated with compounds. The maximum compound concentration was 10 μM and was 3-fold diluted to obtain 9 concentrations, each tested in duplicate, and the final concentration of DMSO was 0.1%. The cells continued to be cultured in the incubator, with MDA-MB-231, PANC-1, MDA-MB-468, OCI-AML-3, and MV-4-11 being treated with drugs for 5 days and HCC1806, MCF7, MCF7 Palbo-R, and HCT116 being treated with drugs for 7 days. Cell viability was tested using the Celltiter Glo assay kit (Promega), and the testing method was consistent with the operational method provided by the kit. Readings were taken using an Envision multimode microplate reader. Data were processed using GraphPad Prism 8, and IC50 was calculated. […]

[2] = test system: PANC-1 pancreatic cancer cells; experiment: Inhibitory activity against tumor cells, CellTiter-Glo: PANC-1; format: cell-based; settings: Homo sapiens, 120 h, PANC-1, 5 days treatment
Description: as §1, §2, §3

[3] = test system: MDA-MB-231 breast cancer cells; experiment: Inhibitory activity against tumor cells, CellTiter-Glo: MDA-MB-231; format: cell-based; settings: Homo sapiens, 120 h, MDA-MB-231, 5 days treatment
Description: as §1, §2, §3

CDK4/CyclinD1 = CDK4/CyclinD1 (Homo sapiens, UniProt P11802); experiment: ADP-Glo kinase assay, CDK4; format: biochemical; settings: 16.3 nM CDK4/CyclinD1, 200 μM ATP (Km), DYRKtide peptide, 120 min; read-out: inhibitory activity (IC50, nM) CDK4
Chain of CDK4/CyclinD1 (P11802 whole entry, species assumed): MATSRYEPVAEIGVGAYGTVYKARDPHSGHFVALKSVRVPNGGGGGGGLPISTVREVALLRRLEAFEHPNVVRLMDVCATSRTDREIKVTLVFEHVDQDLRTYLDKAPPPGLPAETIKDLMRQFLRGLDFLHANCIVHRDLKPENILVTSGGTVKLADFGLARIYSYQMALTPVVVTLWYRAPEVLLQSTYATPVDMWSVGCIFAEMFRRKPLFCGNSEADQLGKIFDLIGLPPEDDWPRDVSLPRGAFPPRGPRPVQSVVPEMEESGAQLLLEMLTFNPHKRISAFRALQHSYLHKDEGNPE
Chain of CDK4/CyclinD1 (P24385 whole entry partner, species assumed): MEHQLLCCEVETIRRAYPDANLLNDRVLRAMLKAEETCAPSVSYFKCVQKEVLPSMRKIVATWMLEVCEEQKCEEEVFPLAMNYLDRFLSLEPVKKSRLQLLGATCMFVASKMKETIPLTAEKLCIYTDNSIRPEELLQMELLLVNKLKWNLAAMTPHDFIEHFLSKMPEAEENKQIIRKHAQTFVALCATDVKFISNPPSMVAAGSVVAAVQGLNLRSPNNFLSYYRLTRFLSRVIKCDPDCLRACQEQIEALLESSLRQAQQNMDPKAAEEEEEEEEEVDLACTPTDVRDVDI
Description: (§4) The ADP-Glo kinase assay was used for testing the activity of CDKs. The compounds were diluted in 384-well plates using Echo. The starting concentration was 10 μM and was 3-fold diluted to obtain 10 concentration points, each tested in duplicate, and the final concentration of DMSO in the assay system was 1%. CDK solutions (the final concentrations were 16.5 nM CDK1/CyclinB, 1 nM CDK2/CyclinE1, 16.3 nM CDK4/CyclinD1, 11.5 nM CDK5/p25, 15.7 nM CDK6/CyclinD3, 80 nM CDK7/Cyclin H/MAT1, 15.3 nM CDK9/Cyclin T1, and 150 nM CDK12/CyclinK) prepared in assay buffer were added at 2.5 μL, and the enzymes and compounds were pre-incubated at room temperature for 10 min. ATP (the concentration was Km) & substrate solutions (20 μM ATP & 0.1 mg/mL Histone H1 Protein for CDK1/CyclinB, 15 μM ATP & 0.1 mg/mL Histone H1 Protein for CDK2/CyclinE1, 200 μM ATP & 0.2 mg/mL DYRKtide peptide for CDK4/CyclinD1, 10 μM ATP & 0.1 mg/mL Histone H1 Protein for CDK5/p25, 200 μM ATP & 0.1 mg/mL Histone H1 Protein for CDK6/CyclinD3, 70 μM ATP & 0.2 mg/mL MBP for CDK7/Cyclin H/MAT1, 60 μM ATP & 0.2 mg/mL PDKtide for CDK9/Cyclin T1, and 20 μM ATP & 80 μM pS7-CTD peptide for CDK12/CyclinK) prepared in assay buffer were added at 2.5 μL. […] Readings were taken using an Envision multimode microplate reader. Data were processed using GraphPad Prism 8, and IC50 was calculated. […]

CDK6/CyclinD3 = CDK6/CyclinD3 (Homo sapiens, UniProt Q00534); experiment: ADP-Glo kinase assay, CDK6; format: biochemical; settings: 15.7 nM CDK6/CyclinD3, 200 μM ATP (Km), Histone H1, 60 min; read-out: inhibitory activity (IC50, nM) CDK 6
Chain of CDK6/CyclinD3 (Q00534 whole entry, species assumed): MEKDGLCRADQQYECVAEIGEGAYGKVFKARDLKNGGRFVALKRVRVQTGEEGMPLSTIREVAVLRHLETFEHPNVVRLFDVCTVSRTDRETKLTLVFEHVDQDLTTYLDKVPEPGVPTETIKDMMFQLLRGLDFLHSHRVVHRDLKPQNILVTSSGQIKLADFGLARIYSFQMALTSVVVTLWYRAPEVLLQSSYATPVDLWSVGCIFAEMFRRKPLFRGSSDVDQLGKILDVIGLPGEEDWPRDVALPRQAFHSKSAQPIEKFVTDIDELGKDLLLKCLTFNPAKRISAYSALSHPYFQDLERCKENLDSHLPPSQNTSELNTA
Chain of CDK6/CyclinD3 (P30281 whole entry partner, species assumed): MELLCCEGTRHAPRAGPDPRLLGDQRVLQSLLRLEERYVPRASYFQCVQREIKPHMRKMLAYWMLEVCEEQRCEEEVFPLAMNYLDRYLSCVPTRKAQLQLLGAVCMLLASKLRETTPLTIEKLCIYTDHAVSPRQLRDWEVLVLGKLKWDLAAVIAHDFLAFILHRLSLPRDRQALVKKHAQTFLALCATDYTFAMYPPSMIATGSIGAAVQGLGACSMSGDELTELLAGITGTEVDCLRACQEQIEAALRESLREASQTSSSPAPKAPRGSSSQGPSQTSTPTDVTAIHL
Description: as §4

CDK5/p25 = CDK5/p25 (Homo sapiens, UniProt Q00535); experiment: ADP-Glo kinase assay, CDK5; format: biochemical; settings: 11.5 nM CDK5/p25, 10 μM ATP (Km), Histone H1, 60 min; read-out: inhibitory activity (IC50, nM) CDK5
Chain of CDK5/p25 (Q00535 whole entry, species assumed): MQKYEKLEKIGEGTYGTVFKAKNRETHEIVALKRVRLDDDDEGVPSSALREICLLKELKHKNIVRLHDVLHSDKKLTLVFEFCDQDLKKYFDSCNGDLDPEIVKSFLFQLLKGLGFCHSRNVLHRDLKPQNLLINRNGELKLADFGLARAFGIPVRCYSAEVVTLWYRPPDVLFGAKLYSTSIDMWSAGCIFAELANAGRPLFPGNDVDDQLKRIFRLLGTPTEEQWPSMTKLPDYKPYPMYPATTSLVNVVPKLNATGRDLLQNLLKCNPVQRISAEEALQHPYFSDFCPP
Chain of CDK5/p25 (Q15078 99-307 partner limits assumed, species assumed): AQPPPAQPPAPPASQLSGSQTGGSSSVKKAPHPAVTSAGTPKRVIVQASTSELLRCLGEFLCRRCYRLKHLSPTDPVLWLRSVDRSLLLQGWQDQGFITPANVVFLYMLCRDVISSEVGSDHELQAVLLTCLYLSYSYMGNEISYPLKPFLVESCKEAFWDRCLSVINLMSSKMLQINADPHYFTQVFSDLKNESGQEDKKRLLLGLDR
Description: as §4

CDK7/Cyclin H/MAT1 = CDK7/Cyclin H/MAT1 (Homo sapiens, UniProt P50613); experiment: ADP-Glo kinase assay, CDK7; format: biochemical; settings: for IC50: 80 nM CDK7/Cyclin H/MAT1, 70 μM ATP (Km), MBP, 60 min, read-out: inhibitory activity (IC50, nM) CDK7; for selectivity for CDK2/CDK7 compared with Janssen-01: from IC50 of Table 6, statement in words
Chain of CDK7/Cyclin H/MAT1 (P50613 whole entry, species assumed): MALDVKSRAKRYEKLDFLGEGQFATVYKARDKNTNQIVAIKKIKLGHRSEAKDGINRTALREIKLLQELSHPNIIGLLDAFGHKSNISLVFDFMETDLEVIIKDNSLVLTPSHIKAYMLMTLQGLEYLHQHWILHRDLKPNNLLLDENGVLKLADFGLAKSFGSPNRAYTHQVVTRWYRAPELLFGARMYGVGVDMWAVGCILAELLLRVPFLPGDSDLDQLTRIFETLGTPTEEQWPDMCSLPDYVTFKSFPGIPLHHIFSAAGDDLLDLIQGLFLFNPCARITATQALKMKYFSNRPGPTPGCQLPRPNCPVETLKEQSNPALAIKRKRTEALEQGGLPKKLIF
Chain of CDK7/Cyclin H/MAT1 (P51946 whole entry partner, species assumed): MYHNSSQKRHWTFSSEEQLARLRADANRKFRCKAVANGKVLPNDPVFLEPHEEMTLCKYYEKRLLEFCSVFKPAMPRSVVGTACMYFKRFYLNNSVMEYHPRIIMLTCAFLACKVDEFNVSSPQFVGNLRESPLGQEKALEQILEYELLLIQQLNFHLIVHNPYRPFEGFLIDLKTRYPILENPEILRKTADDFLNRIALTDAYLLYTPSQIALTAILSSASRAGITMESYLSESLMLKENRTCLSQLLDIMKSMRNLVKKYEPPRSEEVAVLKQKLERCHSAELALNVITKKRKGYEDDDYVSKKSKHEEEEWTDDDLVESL
Chain of CDK7/Cyclin H/MAT1 (P51948 whole entry partner, species assumed): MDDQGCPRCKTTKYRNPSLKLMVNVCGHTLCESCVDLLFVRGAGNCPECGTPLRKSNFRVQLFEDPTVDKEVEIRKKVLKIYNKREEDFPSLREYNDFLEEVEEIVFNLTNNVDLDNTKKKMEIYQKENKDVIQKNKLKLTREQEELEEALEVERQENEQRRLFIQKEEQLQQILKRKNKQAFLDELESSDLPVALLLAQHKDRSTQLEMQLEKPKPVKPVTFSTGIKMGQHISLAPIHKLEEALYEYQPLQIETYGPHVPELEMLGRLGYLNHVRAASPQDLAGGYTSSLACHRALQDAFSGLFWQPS
Description: The ADP-Glo kinase assay was used for testing the activity of CDKs. The compounds were diluted in 384-well plates using Echo. The starting concentration was 10 μM and was 3-fold diluted to obtain 10 concentration points, each tested in duplicate, and the final concentration of DMSO in the assay system was 1%. CDK solutions (the final concentrations were 16.5 nM CDK1/CyclinB, 1 nM CDK2/CyclinE1, 16.3 nM CDK4/CyclinD1, 11.5 nM CDK5/p25, 15.7 nM CDK6/CyclinD3, 80 nM CDK7/Cyclin H/MAT1, 15.3 nM CDK9/Cyclin T1, and 150 nM CDK12/CyclinK) prepared in assay buffer were added at 2.5 μL, and the enzymes and compounds were pre-incubated at room temperature for 10 min. ATP (the concentration was Km) & substrate solutions (20 μM ATP & 0.1 mg/mL Histone H1 Protein for CDK1/CyclinB, 15 μM ATP & 0.1 mg/mL Histone H1 Protein for CDK2/CyclinE1, 200 μM ATP & 0.2 mg/mL DYRKtide peptide for CDK4/CyclinD1, 10 μM ATP & 0.1 mg/mL Histone H1 Protein for CDK5/p25, 200 μM ATP & 0.1 mg/mL Histone H1 Protein for CDK6/CyclinD3, 70 μM ATP & 0.2 mg/mL MBP for CDK7/Cyclin H/MAT1, 60 μM ATP & 0.2 mg/mL PDKtide for CDK9/Cyclin T1, and 20 μM ATP & 80 μM pS7-CTD peptide for CDK12/CyclinK) prepared in assay buffer were added at 2.5 μL. After thorough mixing, the plates were incubated at room temperature, with CDK1/4/9/12/13 incubated for 120 min and CDK2/5/6/7 incubated for 60 min. ADP-Glo reagents were added at 4 μL, and the plates were incubated at room temperature for 40 min. Kinase detection reagents were added at 8 μL, and the plates were incubated at room temperature for 40 min. Readings were taken using an Envision multimode microplate reader. Data were processed using GraphPad Prism 8, and IC50 was calculated.
[formula] • X: the logarithm of the compound concentration; Y: % inhibition.

CDK12/CyclinK = CDK12/CyclinK (Homo sapiens, UniProt Q9NYV4); experiment: ADP-Glo kinase assay, CDK12; format: biochemical; settings: 150 nM CDK12/CyclinK, 20 μM ATP (Km), pS7-CTD peptide, 120 min; read-out: inhibitory activity (IC50, nM) CDK12
Chain of CDK12/CyclinK (Q9NYV4 whole entry, species assumed): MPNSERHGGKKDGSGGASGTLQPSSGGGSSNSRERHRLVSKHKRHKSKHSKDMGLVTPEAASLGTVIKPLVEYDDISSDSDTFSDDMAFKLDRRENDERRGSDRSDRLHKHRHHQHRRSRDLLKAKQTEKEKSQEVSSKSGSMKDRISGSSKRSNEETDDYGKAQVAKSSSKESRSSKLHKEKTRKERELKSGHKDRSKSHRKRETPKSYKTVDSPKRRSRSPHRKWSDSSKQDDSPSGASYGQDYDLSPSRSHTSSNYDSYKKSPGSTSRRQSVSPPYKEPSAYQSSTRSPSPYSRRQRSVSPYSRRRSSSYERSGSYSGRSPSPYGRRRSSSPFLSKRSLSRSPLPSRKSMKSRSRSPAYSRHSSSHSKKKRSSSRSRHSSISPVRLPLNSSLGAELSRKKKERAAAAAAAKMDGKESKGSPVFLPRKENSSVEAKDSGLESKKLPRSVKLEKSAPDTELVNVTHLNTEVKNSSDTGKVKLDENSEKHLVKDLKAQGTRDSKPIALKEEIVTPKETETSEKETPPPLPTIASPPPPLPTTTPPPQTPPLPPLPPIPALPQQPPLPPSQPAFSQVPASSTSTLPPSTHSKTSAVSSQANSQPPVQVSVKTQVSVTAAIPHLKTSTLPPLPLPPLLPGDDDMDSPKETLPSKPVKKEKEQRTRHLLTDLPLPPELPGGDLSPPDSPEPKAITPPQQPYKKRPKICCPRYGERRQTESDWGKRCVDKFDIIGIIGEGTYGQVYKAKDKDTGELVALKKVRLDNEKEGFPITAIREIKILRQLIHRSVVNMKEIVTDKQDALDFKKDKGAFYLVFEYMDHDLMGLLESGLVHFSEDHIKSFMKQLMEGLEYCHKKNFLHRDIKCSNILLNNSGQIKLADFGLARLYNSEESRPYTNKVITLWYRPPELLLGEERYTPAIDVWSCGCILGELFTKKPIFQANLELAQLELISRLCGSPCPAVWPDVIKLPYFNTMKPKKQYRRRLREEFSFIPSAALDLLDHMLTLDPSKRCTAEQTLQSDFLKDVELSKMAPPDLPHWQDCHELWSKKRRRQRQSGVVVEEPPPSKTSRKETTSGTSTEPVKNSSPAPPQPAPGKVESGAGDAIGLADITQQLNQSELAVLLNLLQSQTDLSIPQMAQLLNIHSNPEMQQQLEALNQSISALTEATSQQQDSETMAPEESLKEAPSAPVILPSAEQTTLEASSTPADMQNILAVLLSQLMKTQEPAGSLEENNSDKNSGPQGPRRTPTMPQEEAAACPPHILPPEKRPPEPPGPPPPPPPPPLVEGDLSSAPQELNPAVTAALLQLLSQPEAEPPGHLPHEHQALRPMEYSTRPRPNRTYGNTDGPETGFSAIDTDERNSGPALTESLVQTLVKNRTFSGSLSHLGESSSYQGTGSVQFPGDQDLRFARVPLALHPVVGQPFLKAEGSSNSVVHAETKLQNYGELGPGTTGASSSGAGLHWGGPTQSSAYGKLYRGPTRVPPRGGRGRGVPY
Chain of CDK12/CyclinK (O75909 whole entry partner, species assumed): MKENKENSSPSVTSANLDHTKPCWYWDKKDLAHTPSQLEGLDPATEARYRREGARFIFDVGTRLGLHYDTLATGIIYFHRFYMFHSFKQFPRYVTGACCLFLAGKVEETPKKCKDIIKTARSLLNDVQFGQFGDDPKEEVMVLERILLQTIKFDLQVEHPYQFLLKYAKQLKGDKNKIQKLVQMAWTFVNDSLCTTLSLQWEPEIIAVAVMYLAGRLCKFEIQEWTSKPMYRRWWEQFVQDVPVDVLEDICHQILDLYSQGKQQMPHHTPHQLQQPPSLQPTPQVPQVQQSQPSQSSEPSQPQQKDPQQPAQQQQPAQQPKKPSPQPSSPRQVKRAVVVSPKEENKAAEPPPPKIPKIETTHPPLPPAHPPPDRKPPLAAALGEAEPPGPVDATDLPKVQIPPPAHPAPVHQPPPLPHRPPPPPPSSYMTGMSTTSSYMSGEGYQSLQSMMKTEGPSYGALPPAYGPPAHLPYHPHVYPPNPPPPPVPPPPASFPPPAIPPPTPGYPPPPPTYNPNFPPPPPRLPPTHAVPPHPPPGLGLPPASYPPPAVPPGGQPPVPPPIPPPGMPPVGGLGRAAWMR
Description: as §4

various tumor cell lines = experiment: Inhibitory activity against tumor cells, summary over the panel of Tables 4 and 5; format: cell-based; settings: summary of Tables 4 and 5
Description: as §1, §2
Palbociclib-resistant cells were constructed on MCF7 parent cells, designated MCF7 Palbo-R, and the culture conditions were consistent with those of the parent cells. All tumor cells were cultured in a cell incubator at 37° C. with 5% CO2. The cells were seeded at corresponding cell densities (600 cells/well for MDA-MB-231; 500 cells/well for MDA-MB-468, PANC-1, and HCT-116; 200 cells/well for MCF7 and HCC1806; 800 cells/well for MCF7 Palbo-R; 3000 cells/well for OCI-AML-3 and MV-4-11) in 384-well plates and cultured overnight in the incubator. On the second day, the cells were treated with compounds. The maximum compound concentration was 10 μM and was 3-fold diluted to obtain 9 concentrations, each tested in duplicate, and the final concentration of DMSO was 0.1%. The cells continued to be cultured in the incubator, with MDA-MB-231, PANC-1, MDA-MB-468, OCI-AML-3, and MV-4-11 being treated with drugs for 5 days and HCC1806, MCF7, MCF7 Palbo-R, and HCT116 being treated with drugs for 7 days. Cell viability was tested using the Celltiter Glo assay kit (Promega), and the testing method was consistent with the operational method provided by the kit. Readings were taken using an Envision multimode microplate reader. Data were processed using GraphPad Prism 8, and IC50 was calculated.
Y=Bottom+(Top−Bottom)/(1+10^((Log IC50−X)×HillSlope)). Calculation formula: • X: the logarithm of the compound concentration; Y: % inhibition.

Row | Compound | IC50 [1] [µM] | IC50 [2] [µM] | IC50 [3] [µM] | IC50 (CDK4/CyclinD1) [nM] | IC50 (CDK6/CyclinD3) [nM] | IC50 (CDK5/p25) [nM] | IC50 (CDK7/Cyclin H/MAT1) [nM] | selectivity for CDK2/CDK7 compared with Janssen-01 (CDK7/Cyclin H/MAT1) | IC50 (CDK12/CyclinK) [nM] | inhibitory activity against the various tumor cell lines (in words) (various tumor cell lines)
1 | C[C@@H]1Cc2cnc(NCc3ccn(C)n3)nc2CN1C(=O)N[C@H](CN(C)C)c1ccccc1 [Example 2, (R)—N—((S)-2-(Dimethylamino)-1-phenylethyl)-6-methyl-2-(((1-methyl-TH-pyrazol-3-yl)methyl)amino)-5,8-dihydropyrido[3,4-d]pyrimidine-7(6H)-carboxamide] | 0.0406 | 0.0459 | 0.0254 | > 10000 | > 10000 | 6310 | 21.9 | significantly better selectivity for CDK2/CDK7 than Janssen-01 | > 10000 | high inhibitory activity
2 | C[C@H](Nc1ncc2c(n1)CN(C(=O)N[C@H](CN(C)C)c1ccccc1)[C@H](C)C2)c1ccccn1 [Example 6, (R)—N—((S)-2-(Dimethylamino)-1-phenylethyl)-6-methyl-2-(((S)-1-(pyridin-2-yl)ethyl)amino)-5,8-dihydropyrido[3,4-d]pyrimidine-7(6H)-carboxamide] | 0.0246 | 0.0177 | 0.0232 | > 10000 | > 10000 | 6420 | 28.4 | significantly better selectivity for CDK2/CDK7 than Janssen-01 | > 10000 | high inhibitory activity
